# US20150266864A1, “HETEROAROMATIC COMPOUNDS, METHOD FOR PREPARING THE COMPOUNDS, PHARMACEUTICAL COMPOSITIONS, USES AND METHOD FOR TREATING ACUTE AND CHRONIC PAIN” (CRISTÁLIA PRODUTOS QUÍMICOS FARMACÊUTICOS LTDA, priority 2012, published 2015)
# Legend:
# rats subjected to SNL [1] = assay: Spinal nerve ligation (SNL) L5 model, thermal hyperalgesia; type: in vivo, rat
# [2] = system: rats subjected to sciatic nerve CCI; assay: Chronic constrictive injury (CCI) of the sciatic nerve, thermal hyperalgesia, paw withdrawal test; type: in vivo, rat; conditions: for increase in latency of paw withdrawal: since the 3rd day of treatment
# Procedure: The chronic constrictive injury (CCI) was induced by sciatic nerve ligation according to the method described by Bennett and Xie [Bennett. G. J.; Xie, Y. K. Pain […], 33: 87-107]. Male Wistar rats, weighing 180-240 g, were anesthetized with a mixture of ketamine and xylazine (60 mg/kg and 5 mg/kg, respectively), intraperitoneally. Through an incision of 0.5 cm (parallel and spaced about 10 mm from the left femur) the sciatic nerve was identified. With a thin glass rod, a small segment of sciatic nerve was exposed and four loosely ligatures were placed around the sciatic nerve spaced 1 mm each other using a 3-0 silk suture thread. After the procedure, the skin was sutured and a topical antiseptic was applied.
# To assess animal behavior in response to hyperalgesic phenomenon resulting from sciatic nerve chronic constrictive injury, the model described by Hargreaves and Dubner was used [Hargreaves K., Dubner R., Brown F., Flores C., Joris J. Pain 1988, 32 (1): 77-88]. In this regard, paw withdrawal in response to a painful phenomenon was performed. This is a nociceptive test which involves a peripheral short thermal stimulus induced by the radiant heat of an incandescent lamp bulb. […] Radiant heat has an advantage over the other modes of thermal stimulation in that it produces no tactile stimulus. [Le Bars D., Gozariu M., Cadden S. W. Pharmacology Reviews, 2001, 53 (4), 597-652]. In this assay, a plantar test analgesimeter (ITC Life Science Inc, USA) was used.
# Animals were placed in transparent acrylic boxes with tempered glass pane floor for 40 minutes to acclimate. After this period, the radiant heat was applied to the footpads of animals's hindpaws until they make the movement of paw withdrawal. The paw withdrawal latency was defined as the time recorded from the beginning of the radiant heat stimulus and the paw withdrawal. For each paw, three latency records were made, and the average value was used to define the paw withdrawal time control The maximum time that each animal was exposed to the radiant heat source (cut-off) was defined as three times the paw withdrawal time control, to avoid tissue injuries in animals's paws.
# The day before surgery, rats, defined as “control before surgery”, were placed in acrylic boxes to the paw withdrawal test. On the 7th day after the surgery (CCI), the paw withdrawal test was again performed in order to verify neuropathic pain has been effectively developed in the left paw—defined as “post-surgery control.”
# The paw withdrawal test was assessed during the days 1, 3, and 7 of the treatment (with amitriptyline hydrochloride or the compounds of examples of the instant invention) and on days 1, 3, and 7 after treatment interruption.
# Differences were considered significant when p<0.05.
# rats subjected to SNL [3] = assay: Spinal nerve ligation (SNL) L5 model, mechanical allodynia (digital Von Frey); type: in vivo, rat; conditions: after the first day of treatment, p<0.05
# [4] = first day of treatment, 32.25 μmol/kg ip
# [5] = 32.25 μmol/kg ip, p<0.05 or p<0.005
smiles,measurement,setting,value
"Cl.Cl.Fc1ccc(-c2n[nH]cc2CCN2CCCCC2)cc1.O [C3, 1-{2-[3-(4-fluorophenyl)-1H-pyrazol-4-yl]ethyl}piperidine dihydrochloride monohydrate]","paw withdrawal latency, thermal hyperalgesia","rats subjected to SNL [1]; oral 30 mg/kg, after 7 days of treatment",significantly increased the paw withdrawal latency
same,"paw withdrawal latency, thermal hyperalgesia","rats subjected to SNL [1]; oral 100 mg/kg, after 1 day of treatment",significantly increased the paw withdrawal latency
same,onset of significant increase in latency,[2]; 5 mg/kg ip,significant increase in latency starting on day 3 of treatment
same,reversal of signs of thermal hyperalgesia,[2]; 5 mg/kg ip during 7 days,effective in reversing the signs of thermal hyperalgesia
same,onset of significant increase in latency,[2]; 10 mg/kg ip,significant increase in latency starting on day 3 of treatment
same,reversal of signs of thermal hyperalgesia,[2]; 10 mg/kg ip during 7 days,effective in reversing the signs of thermal hyperalgesia
same,"antinociceptive effect, paw withdrawal latency vs post-surgery control",[2]; [4],antinociceptive effects in the first day of treatment
same,increase in latency of paw withdrawal,[2]; [5],statistically significant increase in latency of paw withdrawal
same,reversion of the signs of mechanical allodynia,rats subjected to SNL [3]; oral 30 mg/kg,reversion of the signs of mechanical allodynia
same,reversion of the signs of mechanical allodynia,rats subjected to SNL [3]; oral 100 mg/kg,reversion of the signs of mechanical allodynia
"Cl.Cl.Fc1ccc(-c2n[nH]cc2CCN2CCOCC2)cc1.O [C9, 4-{2-[3-(4-fluorophenyl)-1H-pyrazol-4-yl]ethyl}morpholine dihydrochloride monohydrate]",increase in latency of paw withdrawal,[2]; [5],statistically significant increase in latency of paw withdrawal
"CCOC(=O)C1(c2ccccc2)CCN(CCc2conc2-c2ccc(F)cc2)CC1.Cl [C17, Ethyl 1-{2-[3-(4-fluorophenyl)-1,2-oxazol-4-yl]ethyl}-4-phenylpiperidine-4-carboxylate hydrochloride]","antinociceptive effect, paw withdrawal latency vs post-surgery control",[2]; [4],antinociceptive effects in the first day of treatment
same,"latency increase, statistical significance","[2]; first day of treatment, 32.25 μmol/kg ip, p<0.05 or p<0.005",the latency increase was statistically significant
"Cl.OC1(c2ccc(Cl)cc2)CCN(CCc2conc2-c2ccc(F)cc2)CC1 [C15, 4-(4-chlorophenyl)-1-{2-[3-(4-fluorophenyl)-1,2-oxazol-4-yl]ethyl}piperidin-4-ol hydrochloride]","antinociceptive effect, paw withdrawal latency vs post-surgery control",[2]; [4],antinociceptive effects in the first day of treatment
same,increase in latency of paw withdrawal,[2]; [5],statistically significant increase in latency of paw withdrawal
same,melting point,,222 to 226 °C (dec.)
"CN1CCN(CCc2c[nH]nc2-c2ccc(F)cc2)CC1.Cl.Cl.Cl.O.O [C11, 1-{2-[3-(4-fluorophenyl)-1H-pyrazol-4-yl]ethyl}-4-methylpiperazine trihydrochloride dihydrate]","antinociceptive effect, paw withdrawal latency vs post-surgery control",[2]; [4],antinociceptive effects in the first day of treatment
same,increase in latency of paw withdrawal,[2]; [5],statistically significant increase in latency of paw withdrawal
